Assay results from article PMC11858513, “Antibiofilm Activities of Tritrpticin Analogs Against Pathogenic Pseudomonas aeruginosa PA01 Strains” (Molecules, 2025).
≈ marks a conversion by molar mass, not a printed value. Residues, ends and D or L forms follow the SMILES beside them.

Assays:
S. aureus GFP [1] = assay: MBIC, GFP fluorescence method; assay type: cell-based, Staphylococcus aureus; settings: Table 4, Sa GFP, 10% TSB and 0.1% glucose, mean of three biological replicates
Method: (§1) Figure 3 The MIC (A), MBIC (B) and MBEC (C) values for the tritrpticin analog peptides were assessed against Sa GFP. The MIC values were determined by measuring the absorbance of bacterial cells at 600 nm. The MBIC and MBEC values were determined by recording the fluorescence at 480 nm and 530 nm from the biofilms of GFP-expressing Sa. Three biological replicates were run for each test sample, and the mean was calculated for the recorded absorption or fluorescence values. In the graphs, the error bars represent the standard deviation (±SD).
(§2) The methods to determine the MIC, MBIC and MBEC have been described in detail in our previous publication. The green fluorescent protein (GFP)-producing P. aeruginosa and S. aureus strains that were used in this work were also described in the earlier publication. Fluorescence detection was used as the main method to estimate the number of cells entrapped in the biofilm matrix. The methodology used for evaluation of the antibiofilm properties against an original Pseudomonas PA01 strain by crystal violet dye staining and the use of the Calgary biofilm device has been described elsewhere. The regular PA01 strain was provided by Dr. J. Harrison, Calgary. All measurements were carried out on an Eppendorf AF2200 plate reader. Every 96-well plate included controls for bacterial cell growth without peptide treatment and media alone. All measurements were carried out in triplicate, and the values in the figures represent the average and the error bars are standard deviation.

P. aeruginosa PAO1 [2] = assay type: cell-based, Pseudomonas aeruginosa; settings: Table 5; PAO1, 1x BM2; biofilms on pegs, cells plated and counted; three biological replicates
Method: (§3) We note the close agreement with the MBIC and MBEC values determined by the fluorescence and CV methods, similar to what we found in our previous work for an S. aureus MRSA strain [23]. We also re-evaluated the MBEC values that are measured using the Calgary biofilm device (CBD), where biofilms form on pegs, rather than at the bottom of the 96-well plates. […] In particular, we find that the single Pro9Ala Tritrp-P9A-substituted version has better MIC, MBIC and MBEC activities than the parent peptide as well as the Tritrp-P59A analog with both prolines substituted to Ala.
Figure 5 The MBEC values for the peptides were assessed against P. aeruginosa PAO1 in the presence of 1× BM2 medium. The eradication of biofilm cells was determined for the peptides using the counting of biofilm cells formed by Pa PAO1. Three biological replicates were run for each test sample, and the mean was calculated for counted cell values. Data points with error bars indicate the standard deviation (±SD).
as §2

P. aeruginosa PAO1 GFP [3] = assay: MBEC, biofilm eradication, GFP fluorescence method; assay type: cell-based, Pseudomonas aeruginosa; settings: Table 2, BM2 medium, mean of three biological replicates
Method: as §1, with “Figure 1” for “Figure 3”, “against Pa PAO1” for “against Sa”, “GFP-expressing PAO1.” for “GFP-expressing Sa.”
(§4) Figure 2 The MIC (A), MBIC (B) and MBEC (C) values for the tritrpticin-Lys derivative peptides were assessed against Pa PAO1 GFP. The MIC values were determined by measuring the absorbance of bacterial cells at 600 nm. The MBIC and MBEC values were determined by recording the fluorescence at 480 nm and 530 nm from the biofilms of GFP-expressing PAO1. Three replicates were run for each sample, the values were averaged and the error bars represent the standard deviation (±SD).
as §2

S. aureus GFP [4] = assay: MBEC, GFP fluorescence method; assay type: cell-based, Staphylococcus aureus; settings: Table 4, Sa GFP, 10% TSB and 0.1% glucose, mean of three biological replicates
Method: as §1, §2

S. aureus GFP [5] = assay: MIC against planktonic cells, absorbance at 600 nm; assay type: cell-based, Staphylococcus aureus; settings: Table 4; Sa GFP, 10% TSB and 0.1% glucose; absorbance 600 nm; mean of three biological replicates
Method: as §1, §2

P. aeruginosa PAO1 GFP [6] = assay: MIC against planktonic cells, absorbance at 600 nm; assay type: cell-based, Pseudomonas aeruginosa; settings: Table 2, BM2 medium, absorbance 600 nm, mean of three biological replicates
Method: as §1, with “Figure 1” for “Figure 3”, “against Pa PAO1” for “against Sa”, “GFP-expressing PAO1.” for “GFP-expressing Sa.”
as §4, §2

S. aureus GFP [7] = assay type: cell-based, Staphylococcus aureus; settings: Table 4; Sa GFP; lowest concentration of peptide with no bacterial growth seen on the spot agar plate
Text: as §2

P. aeruginosa PAO1 GFP [8] = assay: MBIC, prevention of biofilm formation, GFP fluorescence method; assay type: cell-based, Pseudomonas aeruginosa; settings: Table 2, BM2 medium, mean of three biological replicates
Method: as §1, with “Figure 1” for “Figure 3”, “against Pa PAO1” for “against Sa”, “GFP-expressing PAO1.” for “GFP-expressing Sa.”
as §4, §2

P. aeruginosa PAO1 [9] = assay type: cell-based, Pseudomonas aeruginosa; settings: Table 5; regular PAO1 (no GFP), 1x BM2; absorbance 600 nm; mean of three biological replicates
Method: (§5) Figure 4 The MIC (A), MBIC (B) and MBRC (C) values for the peptides were assessed against P. aeruginosa PAO1 in the presence of 1× BM2. The inhibition of planktonic cells, the inhibition of biofilm cells and the reduction in biofilm cells were determined for the peptides by recording of the planktonic cells at 600 nm and quantification of biofilms formed by Pa PAO1 using crystal violet at 595 nm, respectively. Three biological replicates were run for each test sample, and the mean was calculated for the recorded absorption values. Data points with error bars indicate the standard deviation (±SD).
(§6) Figure 6 The MIC (A), MBIC (B) and MBEC (C) values for the tritrpticin-Lys derivatives against P. aeruginosa PAO1 were assessed by the crystal violet (CV) assay for the measurement of inhibition of biofilm formation and eradication of biofilm cells, respectively. The biofilm cells were rinsed, stained with 0.1% crystal violet for 15 min and then rinsed again. The CV was released from biofilm cells by the addition of 95% ethanol and quantified by reading on a spectrometer at 595 nm. Three replicates were run for each sample, the values were averaged and the error bars represent the standard deviation (±SD).
as §2

P. aeruginosa PAO1 [10] = assay type: cell-based; settings: for MBRC (CV at 595 nm) LD50: PAO1; for MBIC (CV at 595 nm) LD50 / MBIC (CV at 595 nm) LD90 / MBRC (CV at 595 nm) LD90: Table 5, PAO1, 1x BM2, crystal violet at 595 nm, mean of three biological replicates; for MBRC (CV at 595 nm) LD90: minimum biofilm reduction concentration
Method: as §3, §5, §6, §2

Structure (SMILES)	MBIC at 488 and 530 nm LD50 (S. aureus GFP [1]) [µmol/L]	MBIC at 488 and 530 nm LD90 (S. aureus GFP [1]) [µmol/L]	MBEC from Calgary Biofilm Device (CBD) LD50 (P. aeruginosa PAO1 [2]) [µmol/L]	MBEC from Calgary Biofilm Device (CBD) LD90 (P. aeruginosa PAO1 [2]) [µmol/L]	MBEC at 488 and 530 nm LD50 (P. aeruginosa PAO1 GFP [3]) [µmol/L]	MBEC at 488 and 530 nm LD90 (P. aeruginosa PAO1 GFP [3]) [µmol/L]	MBEC at 488 and 530 nm LD50 (S. aureus GFP [4]) [µmol/L]	MBEC at 488 and 530 nm LD90 (S. aureus GFP [4]) [µmol/L]	MIC at 600 nm LD50 (S. aureus GFP [5]) [µM]	MIC at 600 nm LD90 (S. aureus GFP [5]) [µM]	MIC at 600 nm LD50 (P. aeruginosa PAO1 GFP [6]) [µM]	MIC at 600 nm LD90 (P. aeruginosa PAO1 GFP [6]) [µM]	MBC Agar Plate (S. aureus GFP [7]) [µM]	MBIC at 488 and 530 nm LD50 (P. aeruginosa PAO1 GFP [8]) [µmol/L]	MBIC at 488 and 530 nm LD90 (P. aeruginosa PAO1 GFP [8]) [µmol/L]	MIC at 600 nm LD50 (P. aeruginosa PAO1 [9]) [µM]	MIC at 600 nm LD90 (P. aeruginosa PAO1 [9]) [µM]	MBRC (CV at 595 nm) LD50 (P. aeruginosa PAO1 [10]) [µmol/L]	MBIC (CV at 595 nm) LD50 (P. aeruginosa PAO1 [10]) [µmol/L]	MBIC (CV at 595 nm) LD90 (P. aeruginosa PAO1 [10]) [µmol/L]	also measured
CC(C)C[C@H](NC(=O)[C@H](Cc1ccccc1)NC(=O)[C@@H]1CCCN1C(=O)[C@H](Cc1c[nH]c2ccccc12)NC(=O)[C@H](Cc1c[nH]c2ccccc12)NC(=O)[C@H](Cc1c[nH]c2ccccc12)NC(=O)[C@@H]1CCCN1C(=O)[C@H](Cc1ccccc1)NC(=O)[C@H](CCCCN)NC(=O)[C@H](CCCCN)NC(=O)[C@@H](N)C(C)C)C(=O)N[C@@H](CCCCN)C(=O)N[C@@H](CCCCN)C(N)=O [Tritrp-Lys] (H-VKKFPWWWPFLKK-NH2)	2	2	128	128	64	64	1	2	1 (≈ 1.79 µg/mL)	2 (≈ 3.58 µg/mL)	32 (≈ 57.3 µg/mL)	32 (≈ 57.3 µg/mL)	4 (≈ 7.16 µg/mL)	16	32	32 (≈ 57.3 µg/mL)	32 (≈ 57.3 µg/mL)	64	32	32	MBRC (CV at 595 nm) LD90 (P. aeruginosa PAO1 [10]): 64 µmol/L
CC(C)C[C@H](NC(=O)[C@H](Cc1ccccc1)NC(=O)[C@@H]1CCCN1C(=O)[C@H](Cc1c[nH]c2ccccc12)NC(=O)[C@H](Cc1c[nH]c2ccccc12)NC(=O)[C@H](Cc1c[nH]c2ccccc12)NC(=O)[C@H](C)NC(=O)[C@H](Cc1ccccc1)NC(=O)[C@H](CCCNC(=N)N)NC(=O)[C@H](CCCNC(=N)N)NC(=O)[C@@H](N)C(C)C)C(=O)N[C@@H](CCCNC(=N)N)C(=O)N[C@@H](CCCNC(=N)N)C(N)=O [Tritrp-P5A] (H-VRRFAWWWPFLRR-NH2)	1	4	32	128	64	64	2	4	1 (≈ 1.88 µg/mL)	2 (≈ 3.75 µg/mL)	4 (≈ 7.5 µg/mL)	8 (≈ 15 µg/mL)	4 (≈ 7.5 µg/mL)	4	8	4 (≈ 7.5 µg/mL)	8 (≈ 15 µg/mL)	32	8	8	MBRC (CV at 595 nm) LD90 (P. aeruginosa PAO1 [10]): 32 µmol/L
CC(C)C[C@H](NC(=O)[C@H](Cc1ccccc1)NC(=O)[C@H](C)NC(=O)[C@H](Cc1c[nH]c2ccccc12)NC(=O)[C@H](Cc1c[nH]c2ccccc12)NC(=O)[C@H](Cc1c[nH]c2ccccc12)NC(=O)[C@@H]1CCCN1C(=O)[C@H](Cc1ccccc1)NC(=O)[C@H](CCCCN)NC(=O)[C@H](CCCCN)NC(=O)[C@@H](N)C(C)C)C(=O)N[C@@H](CCCCN)C(=O)N[C@@H](CCCCN)C(N)=O [Tritrp-P9A-Lys] (H-VKKFPWWWAFLKK-NH2)	2	4	64	64	4	64	1	8	1 (≈ 1.76 µg/mL)	4 (≈ 7.05 µg/mL)	4 (≈ 7.05 µg/mL)	8 (≈ 14.1 µg/mL)	8 (≈ 14.1 µg/mL)	8	8	4 (≈ 7.05 µg/mL)	8 (≈ 14.1 µg/mL)	32	8	16	MBRC (CV at 595 nm) LD90 (P. aeruginosa PAO1 [10]): 64 µmol/L
CC(C)C[C@H](NC(=O)[C@H](Cc1ccccc1)NC(=O)[C@H](C)NC(=O)[C@H](Cc1c[nH]c2ccccc12)NC(=O)[C@H](Cc1c[nH]c2ccccc12)NC(=O)[C@H](Cc1c[nH]c2ccccc12)NC(=O)[C@H](C)NC(=O)[C@H](Cc1ccccc1)NC(=O)[C@H](CCCCN)NC(=O)[C@H](CCCCN)NC(=O)[C@@H](N)C(C)C)C(=O)N[C@@H](CCCCN)C(=O)N[C@@H](CCCCN)C(N)=O [Tritrp-P59A-Lys] (H-VKKFAWWWAFLKK-NH2)	2	2	64	128	32	128	2	4	2 (≈ 3.47 µg/mL)	2 (≈ 3.47 µg/mL)	4 (≈ 6.95 µg/mL)	4 (≈ 6.95 µg/mL)	4 (≈ 6.95 µg/mL)	4	4	4 (≈ 6.95 µg/mL)	8 (≈ 13.9 µg/mL)	64	4	8	MBRC (CV at 595 nm) LD90 (P. aeruginosa PAO1 [10]): 64 µmol/L
